From publication PMC11541474, “Toward New Therapeutics for Visceral Leishmaniasis: Efficacy and Mechanism of Action of Amides Inspired by Gibbilimbol B” (ACS Omega, 2024)

What was measured:
[1] = system: L. (L.) infantum promastigotes; test: mitochondrial membrane electric potential, JC-1 flow cytometry; type: cell-based, Leishmania (L.) infantum; conditions: 9 at 141.5 μM, 10 at 110.1 μM, 4 h exposure
Source text: Mitochondria perform several vital functions and play an essential role in maintaining cellular balance, thus making them a potential target for new drugs against Leishmania spp. Mitochondria are composed of two interconnected membranes and play crucial roles in energy production (ATP), calcium regulation, and the induction of programmed cell death among other processes.[22],[23] Prolonged changes in mitochondrial membrane potential can lead to irreversible cellular damage.[24] The mitochondrial membrane potential of L. (L.) infantum promastigotes (Figure 6) was evaluated by flow cytometry using JC-1.[25] […] The compound carbonyl cyanide m-chlorophenyl […] (CCCP) was used to induce maximum depolarization (positive control), whereas untreated parasites served as a negative control. […] Both alterations may have contributed to the observed mitochondrial dysfunction and might explain the reduction in ROS levels after treatment that was observed. […] JC-1 dye fluorescence was measured by flow cytometry (excitation and emission at 488 and 530 nm, respectively) after incubation. […] Fluorescence is reported as the quotient of channels BL2/BL1.**: p = 0.0001. […] Fluorescence was measured with excitation and emission filters at 488 and 530 nm (BL-1)/574 nm (BL-2), respectively. […]

[2] = system: L. (L.) infantum promastigotes; test: parasite protein spectral profiling (MALDI-TOF/MS); type: cell-based, Leishmania (L.) infantum; conditions: 9 at 141.5 μM, 10 at 110.1 μM, 24 h incubation
Description: Finally, the protein variations of Leishmania after treatment with compounds 9 and 10 were investigated using MALDI-TOF/MS analysis.[37],[38] […] Panel I. Promastigotes were incubated with compound 9 (141.5 μM), compound 10 (110.1 μM). Miltefosine was used as positive control whereas untreated parasites were used as a negative control. The peaks observed at m/z 6,153 and m/z 7,187 (blue) allow the identification of the Leishmania subgenus. Increases in peak intensity resulting from the incubation of promastigotes with compound 9 or 10 can be observed at m/z 3,081, 5,542, and 11,079 (red). Panel II. A schematic gel showing mass spectra in the m/z 2,000–20,000 range (B, D, F, H); raw spectra are shown in blue (A, C, E, G), whereas spectra generated after normalization, smoothing, and baseline subtraction are shown in red. (A) and (B), results from untreated promastigotes (negative control); (C) and (D); results from promastigotes incubated with compound 9; (E) and (F), results from promastigotes incubated with compound 10; and (G) and (H) results from promastigotes incubated with miltefosine (standard treatment drug and positive control). MALDI-TOF/MS was used to investigate protein changes in stationary-phase L. (L.) infantum promastigotes that were induced by treatment with compound 9 (141.5 μM), compound 10 (110.1 μM), or the standard drug miltefosine. […]

[3] = in vitro mammalian toxicity against NCTC cells; type: cell-based; conditions: 50% cytotoxic concentration, read-out: Cc50 Nctc (μm) ± SD
Description: Evaluation of in vitro mammalian toxicity against NCTC cells was performed as previously described.[40] The selectivity index was determined using the following equation: CC50 against NCTC cells/EC50 against amastigotes.[44] The CC50 and EC50 values were calculated using sigmoidal dose–response curves using Graph Pad Prism 5.0 software. One-way ANOVA testing with Tukey’s multiple comparison tests were used for evaluation of the statistical significance (p-value) of differences between the samples, which were tested in duplicate and all assays were repeated at least twice.

Structure (SMILES) | mitochondrial membrane potential (JC-1) compared with untreated promastigotes [1] | MALDI-TOF/MS protein spectral profile compared with untreated parasites [2] | CC50 [3] [µM]
CCCCC(CC)CNC(=O)c1ccc(Cl)cc1 (stereo not drawn) [Compound 9, N-(2-Ethylhexyl)-4-chlorobenzamide] | significant depolarization of the mitochondrial membrane | increased the intensity of the spectral peaks | > 200
CCCCC(CC)CNC(=O)c1ccc([N+](=O)[O-])cc1 (stereo not drawn) [Compound 10, N-(2-Ethylhexyl)-4-nitrobenzamide] | not statistically significant | increased the intensity of the spectral peaks | > 200
